Experiment: xn = mol fraction of the nth substance listed
Conditions: Liquid, Vibrating tube method

COc1cc2c(cc1O)CC1c3c(cc(O)c(OC)c3-2)CCN1C (stereo not given) [boldine] + CCO
Conditions	mass density [kg/m3]
332.93 K, 6000 kPa, x1 = 0.0074	775.81
332.93 K, 7000 kPa, x1 = 0.0074	776.8
332.93 K, 8000 kPa, x1 = 0.0074	777.8
332.93 K, 9000 kPa, x1 = 0.0074	778.8
332.93 K, 10000 kPa, x1 = 0.0074	779.77
332.93 K, 11000 kPa, x1 = 0.0074	780.75
332.93 K, 12000 kPa, x1 = 0.0074	781.71
332.93 K, 13000 kPa, x1 = 0.0074	782.66
332.93 K, 14000 kPa, x1 = 0.0074	783.61
332.93 K, 15000 kPa, x1 = 0.0074	784.53
332.93 K, 16000 kPa, x1 = 0.0074	785.45
332.93 K, 17000 kPa, x1 = 0.0074	786.34
332.93 K, 18000 kPa, x1 = 0.0074	787.23
332.93 K, 19000 kPa, x1 = 0.0074	788.09
332.93 K, 20000 kPa, x1 = 0.0074	788.95
332.95 K, 1000 kPa, x1 = 0.0196	799.67
332.95 K, 2000 kPa, x1 = 0.0196	800.63
332.95 K, 3000 kPa, x1 = 0.0196	801.6
332.95 K, 4000 kPa, x1 = 0.0196	802.56
332.95 K, 5000 kPa, x1 = 0.0196	803.52
332.95 K, 6000 kPa, x1 = 0.0196	804.48
332.95 K, 7000 kPa, x1 = 0.0196	805.45
332.95 K, 8000 kPa, x1 = 0.0196	806.4
332.95 K, 9000 kPa, x1 = 0.0196	807.35
332.95 K, 10000 kPa, x1 = 0.0196	808.29
332.95 K, 11000 kPa, x1 = 0.0196	809.23
332.95 K, 12000 kPa, x1 = 0.0196	810.15
332.95 K, 13000 kPa, x1 = 0.0196	811.07
332.95 K, 14000 kPa, x1 = 0.0196	811.98
332.95 K, 15000 kPa, x1 = 0.0196	812.86
332.95 K, 16000 kPa, x1 = 0.0196	813.75
332.95 K, 17000 kPa, x1 = 0.0196	814.61
332.95 K, 18000 kPa, x1 = 0.0196	815.46
332.95 K, 19000 kPa, x1 = 0.0196	816.3
332.95 K, 20000 kPa, x1 = 0.0196	817.11
333 K, 1000 kPa, x1 = 0.0267	811.86
333 K, 2000 kPa, x1 = 0.0267	812.8
333 K, 3000 kPa, x1 = 0.0267	813.76
333 K, 4000 kPa, x1 = 0.0267	814.69
333 K, 5000 kPa, x1 = 0.0267	815.65
333 K, 6000 kPa, x1 = 0.0267	816.59
333 K, 7000 kPa, x1 = 0.0267	817.53
333 K, 8000 kPa, x1 = 0.0267	818.45
333 K, 9000 kPa, x1 = 0.0267	819.38
333 K, 10000 kPa, x1 = 0.0267	820.29
333 K, 11000 kPa, x1 = 0.0267	821.22
333 K, 12000 kPa, x1 = 0.0267	822.11
333 K, 13000 kPa, x1 = 0.0267	823.01
333 K, 14000 kPa, x1 = 0.0267	823.9
333 K, 15000 kPa, x1 = 0.0267	824.77
333 K, 16000 kPa, x1 = 0.0267	825.63
333 K, 17000 kPa, x1 = 0.0267	826.48
333 K, 18000 kPa, x1 = 0.0267	827.32
333 K, 19000 kPa, x1 = 0.0267	828.13
333 K, 20000 kPa, x1 = 0.0267	828.94
333.04 K, 1000 kPa, x1 = 0.0136	784.43
333.04 K, 2000 kPa, x1 = 0.0136	785.41
333.04 K, 3000 kPa, x1 = 0.0136	786.41
333.04 K, 4000 kPa, x1 = 0.0136	787.39
333.04 K, 5000 kPa, x1 = 0.0136	788.38
333.04 K, 6000 kPa, x1 = 0.0136	789.37
333.04 K, 7000 kPa, x1 = 0.0136	790.36
333.04 K, 8000 kPa, x1 = 0.0136	791.33
333.04 K, 9000 kPa, x1 = 0.0136	792.31
333.04 K, 10000 kPa, x1 = 0.0136	793.27
333.04 K, 11000 kPa, x1 = 0.0136	794.24
333.04 K, 12000 kPa, x1 = 0.0136	795.2
333.04 K, 13000 kPa, x1 = 0.0136	796.14
333.04 K, 14000 kPa, x1 = 0.0136	797.07
333.04 K, 15000 kPa, x1 = 0.0136	797.98
333.04 K, 16000 kPa, x1 = 0.0136	798.89
333.04 K, 17000 kPa, x1 = 0.0136	799.78
333.04 K, 18000 kPa, x1 = 0.0136	800.65
333.04 K, 19000 kPa, x1 = 0.0136	801.51
333.04 K, 20000 kPa, x1 = 0.0136	802.34
